For orientation: half-life means how long it takes for the measured level to halve. Low values mean rapid decline, high ones slow decline.

This is an account of results in patent publication US20210186972A1, “FORMULATIONS AND METHODS FOR THE PREVENTION AND TREATMENT OF TUMOR METASTASIS AND TUMORIGENESIS” (THE UNITED STATES OF AMERICA, AS REPRESENTED BY THE …, priority 2018, published 2021).

The subject of data set [1] is PC3M cells. The data set is described as follows: Cell growth (INCUCYTE confluence), PC3M. The class given is cell-based, human. An excerpt:
The confluence (%) is on the y-axis and the time (in hours) is on the x-axis. The top most line is GM02153-DMSO, the second line from the top is PC3M-DMSO, the third line from the top is GM02153-metarrestin, and the bottom line is PC3M-metarrestin.

Data set [2] in a line: in vivo. The settings on record: mouse. Details: species or system BALB/c mice. As to the method:
(§1) Metarrestin was administered to female BALB/c mice, n=3 in the single dose and the repeat doses were administered to SCID-beige mice, n=3 per time point. The repeat dose study mice were given daily intraperitoneal injections for 4 weeks, with concentration measured 24 h after the last dose. Metarrestin was formulated in 5% NMP+20% PEG400+75% (10% […] in water).
BALB/c mice, 17-19 g, female, n=66, were purchased and had free access to food and water. They were dosed with metarrestin at 5 or 25 mg/kg (10 ml/kg) in 5% NMP [NMP (Sigma-Aldrich cat #270458), 20% PEG400 (Sigma-Aldrich cat #202398), and 75% 10% HPBCD (Sigma-Aldrich cat #H107)] via lower left abdominal quadrant injection (n=33 each dose). The animals were anesthetized with isoflurane and restrained manually at the designated time points. Approximately 120 μL of blood were taken from the animals into K2EDTA tubes via retro-orbital puncture. Blood samples were placed on ice and centrifuged (2,000 g, 5 min under 4° C.) to obtain plasma samples within 15 minutes. An aliquot of 20 μL plasma sample was protein-precipitated with 200 μL acetonitrile that contained 50 ng/mL IS (dexamethasone). […] Twenty-four hours after the final dose, the concentrations of metarrestin in plasma were analyzed.

Data set [3] can be described thus: Repeat dose plasma pharmacokinetics, IP. Format: in vivo, SCID Beige mice. The settings on record: for concentration at 24 h: SCID Beige, mouse, plasma, intraperitoneal. As to the method: as §1
BALB/c mice, 17-19 g, female, n=66, were purchased and had free access to food and water. They were dosed with metarrestin at 5 or 25 mg/kg (10 ml/kg) in 5% NMP [NMP (Sigma-Aldrich cat #270458), 20% PEG400 (Sigma-Aldrich cat #202398), and 75% 10% HPBCD (Sigma-Aldrich cat #H107)] via lower left abdominal quadrant injection (n=33 each dose). The animals were anesthetized with isoflurane and restrained manually at the designated time points. Approximately 120 μL of blood were taken from the animals into K2EDTA tubes via retro-orbital puncture. Blood samples were placed on ice and centrifuged (2,000 g, 5 min under 4° C.) to obtain plasma samples within 15 minutes. An aliquot of 20 μL plasma sample was protein-precipitated with 200 μL acetonitrile that contained 50 ng/mL IS (dexamethasone). The mixture was vortexed for 2 min, centrifuged at 14,000 rpm for 5 min, and an aliquot of 30 μL supernatant was diluted with 70 μL MeOH:H2O (1:1, v/v), then vortexed for 2 min. A 2 μL aliquot of supernatant was injected into UPLC-MS/MS. Analysis of samples was done with an LC-MS/MS-02 (API4000), Waters-BEH-C18 (2.1×50 mm, 1.7 μm) column, flow rate 0.6 mL/min, with a mobile phase consisting of solvent A (H2O— 0.025% FA-1 mM NH4OAc) and solvent B (MeOH— 0.025% FA-1 mM NH4OAc). The gradient was 10, 90, 90, 10% B at 0.30, 0.60, 1.20, 1.21, 1.80 (stop) min. Retention times for metarrestin and dexamethasone were 1.09 and 1.08 min, respectively. Calibration curves were established with known serially diluted concentrations of metarrestin before analysis. SCID Beige mice were purchased and dosed with metarrestin at 5 and 25 mg/kg, once daily at 24 hour intervals for 4 weeks as above. Twenty-four hours after the final dose, the concentrations of metarrestin in plasma were analyzed.

Data set [4] deals with HeLa, PANC1 and PC3M cells; PANC1 xenograft tumor tissues. The data set is described as follows: Nucleolar structure by electron microscopy and immunofluorescence in cancer cells and tumor tissues. Format: cell-based, human. As to the method: Representative electron micrographs are shown for HeLa cells (FIG. 21A; treated at 1 μM for 24 hours), primary pancreatic tumors (FIG. 21B), and liver metastases (FIG. 21C) from NSG PANC1 mice treated with vehicle (top) or 10 mg/kg metarrestin (bottom) for 7 days. […] Scale bar=1 μm.
100 nucleoli were randomly selected and analyzed to calculate nucleolar area as ((largest+shortest diameter)/2)^2×π). The comparison of mean nucleolar areas was performed using Mann Whitney U test, 2-tailed, n=4 animals per group.
To address the mechanisms by which metarrestin inhibits metastasis, cellular changes after metarrestin treatment were observed. Primary antibodies: 1:300 dilution for SH54 (anti-PTB antibody); 1:300 for Nopp140 (anti-human Nopp140 rabbit polyclonal serum RS8); 1:50 for UBF (F-9) (Santa Cruz Biotechnology); 1:100 for RPA194 (Santa Cruz Biotechnology); 1:100 for CUG-BP1 (3B1) (Santa Cruz Biotechnology); 1:10 for fibrillarin (Sigma Cat #: ANA-N); 1:1000 for SC35; 1:300 for paxillin (ab32084); 1:600 for vinculin (Sigma V9131). The fluorescein-conjugated secondary antibodies (Jackson ImmunoResearch) and ALEXA FLUOR antibodies (Thermofisher Scientific) were used at a dilution of 1:200. Samples were visualized on a Nikon ECLIPSE Ti-E inverted fluorescence microscope using NIS-Elements AR 3.2 software (Nikon).
The nucleolar disruption was reversible within 48 hours upon withdrawal of metarrestin (FIG. 47). Similar disruptions were observed among other treated cell lines, including PANC1 and PC3M cells (FIG. 48), primary tumor, and liver metastatic tissues in the PANC1 xenograft model (FIG. 21, right panels). […] The segregation of the nucleolar compartments observed by EM is believed to correspond to the nucleolar capping structures detected by immunofluorescence of nucleolar proteins (FIGS. 21A-21C, 23, and 50). […]

The test system of data set [5] is normal human fibroblast GM02153 cell line. The data set is described as follows: UBF distribution (nucleolar capping) in normal fibroblasts. Format: cell-based. The method, then:
The nucleolar disruption was reversible within 48 hours upon withdrawal of metarrestin (FIG. 47). Similar disruptions were observed among other treated cell lines, including PANC1 and PC3M cells (FIG. 48), primary tumor, and liver metastatic tissues in the PANC1 xenograft model (FIG. 21, right panels). […] The segregation of the nucleolar compartments observed by EM is believed to correspond to the nucleolar capping structures detected by immunofluorescence of nucleolar proteins (FIGS. 21A-21C, 23, and 50). The coupling of nucleolar segregation with PNC loss was confirmed across several cell lines by immunolabeling with antibodies against the nucleolar Pol I transcription initiation factors, UBF (upstream binding transcription factor) (FIGS. 23 and 50), or Pol I polymerase, RPA194 (FIG. 51). Factors involved in ribosome maturation, such as fibrillarin or NOPP140 (FIGS. 51 and 52) were similarly reorganized. In contrast, UBF distribution was not changed when the normal human fibroblast GM02153 cell line was treated with metarrestin at the same concentration (FIG. 53).

The test system of data set [6] is Pol II transcription. As to the kind of experiment: Pol II transcription status: CUGBP and SC35 immunolabeling. Format: cell-based. An excerpt:
To further determine whether metarrestin interferes with Pol II transcription in general, CUGBP was immunolabeled. The steady state nuclear distribution of CUGBP, a multifunctional hnRNP protein highly enriched in the PNC, is dependent upon Pol II transcription.

Data set [7] deals with eEF1A. As to the kind of experiment: Cellular thermal shift assay (CETSA). Format: binding. Particulars: PC3M cell lysate. From the text:
DMSO is the top panel and metarrestin is the bottom panel.

The mark [8] stands for this setting: 25 mg/kg IP once daily for 4 weeks, 24 h after the final dose.

`N=c1c2c(-c3ccccc3)c(-c3ccccc3)n(Cc3ccccc3)c2ncn1[C@H]1CC[C@H](O)CC1` [metarrestin]: the PC3M cell growth entry in data set [1] (0.6 μM, after 24 hours of treatment) is reported as “did not affect PC3M or PANC1 cell growth”. Moreover, the “Cell growth in PC3M cancer cells” value in data set [1] (1 μM, extended time, INCUCYTE) was “preferentially inhibited cell growth”. This molecule had a half-life in data set [2] (female, BALB/c, ip, 25 mg/kg) of 4.6 to 5.5 h. Besides, the Bioavailability entry in data set [2] is given as “high bioavailability”. In data set [3] (setting [8]), this molecule yielded a Plasma concentration of 1460 nM and a concentration at 24 h of 692 ng/mL. In data set [3] (5 mg/kg IP once daily for 4 weeks, 24 h after the final dose), this molecule had a concentration at 24 h of 48.4 ng/mL. In addition, the Risk of accumulation entry in data set [3] (single and multiple daily IP dosing, 5 and 25 mg/kg) is recorded as “predicted moderate risk of accumulation”. In addition, the Nucleolar structure result in data set [4] (1 μM, electron microscopy) was “induced collapse of the nucleolus”. In addition, the “Time to reversal of nucleolar disruption upon withdrawal” value in data set [4] (after 1 μM for 24 hours, HeLa cells) was no more than 48 h. The Nucleolar volume result in data set [4] (treated cell lines and cancer tissues, p<0.0001) is “significantly reduced”. For the same molecule, in data set [5] (1 μM), the UBF distribution result was “not changed”. Also, the UBF capping result in data set [5] (5 μM) is listed as “did not become completely capped”. In data set [6], the “Localization of CUGBP” value is given as “without causing cytoplasmic relocation of CUGBP” and the SC35 distribution pattern result is “not significantly changed”. Also, in data set [7], the “Aggregation temperature of eEF1A” value is given as “increase in the aggregation temperature of eEF1A”.
